Patent publication EP1143981B1, “USE OF N-GLYCOLNEURAMINIC ACID AND ITS DERIVATIVES FOR THE MANUFACTURE OF A MEDICAMENT FOR THE TREATMENT OF HIV INFECTIONS” (Glukor, Inc., priority 1998, dated 2000)

Key:
Format in all cases: cell-based
HIV-1III B [1] = assay: HIV-1 P24 output, test solution mixed with virus, PBMCs infected overnight; conditions: day 9
Protocol: Example 4-Specificity of Inhibition: Research grade purified d-Galactose (CAT# g404, lot 117H00431, FW 180.2, Sigma Chemical Co., St. Louis, MO) was dissolved in saline at a concentration of 5mg/ml. The solution was allowed to stand at room temperature for 15 minutes and mixed by vortex until the galactose was completely dissolved. The galactose solution was divided into two equal aliquots. Stabilizing solution (0.1 ml) was added to one aliquot, then vortexed and incubated at room temperature for 30 minutes. After mixing again, the mixture was centrifuged at 1500g for 30 minutes and the supernatant was filtered through a 0.2µm filter and transferred to a sterile 15 ml tube. The solution was sterilized by gamma radiation (2.5 mega RADs) with 15 minutes exposure. The aliquot without the stabilizing solution was labeled "1A" and the aliquot containing the stabilized solution was labeled "1B". […] Each of the test solutions were diluted 1:20 1:40,1:80, and 1:160 in saline. Control solutions were water.
One ml of each of the dilutions of the test solution or control was mixed with an equal volume of HIV-1III B (~50 TCID50 /2x10^5 cells) to infect activated human PBMCs overnight at 37°C (3x10^5 cells/dilution). HIV-1III B is a laboratory-adapted strain. The cells then were washed and placed in culture media containing the indicated dilution of the test solution in triplicate wells (1x10^3 cells per well, ½ medium changes with media containing the indicated dilutions of test solution were made at ~3 day intervals). The conditioned media were tested for HIV-1 P24 output on day 9 using the DuPont P24 assay kit. The control was infected PBMCs in the absence of test solutions. Results are shown in Table 9 and are measured as the Inhibition% of the control. […]

HIV-1 IIIB [2] = assay: HIV-1 P24 output, repeat with stored solutions, 3 hours infection; conditions: day 6
Protocol: The test was repeated using test solutions stored at 4°C. In this experiment, the dilutions were mixed with HIV-1 IIIB virus at the time of infecting the activated human PBMCs for 3 hours. The cells then were washed and incubated in triplicate wells (1x10^3 cells/well) in the presence of the indicated dilution of the test solution. One half media changes included the test solution dilutions. Conditioned media were tested for P24 output by the antigen capture assay on day 6. Results are shown in Table 10 and are presented as the inhibition % of control (no carbohydrate added).

HIV-1 IIIB [3] = assay: HIV-1 P24 output, test solutions added post infection
Protocol: In addition, a similar experiment was performed, except that test solutions were added post infection, at the time of plating into the triplicate wells.

HIV-1III B [4] = assay: HIV-1 P24 output, test solution mixed with virus, PBMCs infected overnight; conditions: Dilution 1:10 of 5mg/ml solution, day 9
X4 strain LAI/IIIB = assay: RT activity in infected PBMCs over 20 days post-infection
Protocol: Reverse Transcriptase Activity Assay: A microtiter based reverse transcriptase (RT) reaction was utilized as described by Buckheit et al., (1991), AIDS Research and Human Retroviruses, 7:295-302. Tritiated thymidine triphosphate (^3H-TTP) was suspended in distilled H2O at 5 Ci/mL. Poly rA and oligo dT were prepared as a stock solution which was kept at -20°C. RT reaction buffer was prepared fresh on a daily basis and contained 125 µL 1M EGTA, 125 µL dH2O, 110 µL 10% SDS, 50 µL 1M Tris (pH 7.4), 50 µL 1M DTT, and 40 µL 1M MgCl2. These three solutions were mixed together in a ratio of 2 parts ^3H-TTP, 1 part poly rA:oligo dT, and 1 part reaction buffer. Ten microliters of this reaction mixture were placed in a round bottom microtiter plate and 15 µL of virus containing supernatant were added and mixed. The plate was incubated at 37°C in a water bath with a solid support to prevent submersion of the plate and incubated for 60 minutes. After the incubation period, the reaction volume was spotted onto pieces of DE81 paper, washed 5 times for 5 minutes each in a 5% sodium phosphate buffer, 2 times for 1 minute each in distilled water, 2 times for 1 minute each in 70% ethanol, and then dried. Opti-Fluor-O (Packard) was added to each sample and incorporated radioactivity was quantified utilizing a Wallac 1450 MicroBeta Plus liquid scintillation counter. Plates were screened with tetrazolium dye staining as described above.
PBMCs were treated with dilutions of LUKOR of 1:4, 1:20, 1:100, 1:500, or 1:2500, or concentrations ofN-glycolylneuraminic acid or N-acetylneuraminic acid of 0.4, 1.2, 3.6, 11, or 33µg/ml. No carbohydrates were added to the control sample. RT activity was determined at 3, 6, 9,13, 17, and 20 days post-infection (PI) with X4 strain LAI/IIIB.

[5] = Dilution 1:10, solutions stored at 4°C
[6] = Dilution 1:20, solutions stored at 4°C
[7] = Dilution 1:40, solutions stored at 4°C
[8] = Dilution 1:80, solutions stored at 4°C
[9] = Dilution 1:160, solutions stored at 4°C
[10] = Dilution 1:10, added post infection
[11] = Dilution 1:20, added post infection
[12] = Dilution 1:20, repeat with further dilutions (Table 12)
[13] = Dilution 1:40, added post infection
[14] = Dilution 1:80, added post infection
[15] = Dilution 1:100, repeat with further dilutions (Table 12)
[16] = Dilution 1:160, added post infection
[17] = Dilution 1:1000, repeat with further dilutions (Table 12)

O=C(CO)N[C@H]1[C@H]([C@H](O)[C@H](O)CO)OC(O)(C(=O)O)C[C@@H]1O (single isomer, unassigned) [2A, N-glycolylneuraminic acid]
P24 output, Inhibition% of the control (HIV-1III B [1]; Dilution 1:20): 78%
P24 output, Inhibition% of the control (HIV-1III B [1]; Dilution 1:40): 66%
Inhibition % of Control (HIV-1 IIIB [2]; [5]): 96%
Inhibition % of Control (HIV-1 IIIB [2]; [6]): 78%
Inhibition % of Control (HIV-1 IIIB [2]; [7]): 62%
Inhibition % of Control (HIV-1 IIIB [2]; [8]): 47%
Inhibition % of Control (HIV-1 IIIB [2]; [9]): 17%
Inhibition % of Control (HIV-1 IIIB [3]; [10]): 95%
Inhibition % of Control (HIV-1 IIIB [3]; [11]): 75%
Inhibition % of Control (HIV-1 IIIB [3]; [12]): 88%
Inhibition % of Control (HIV-1 IIIB [3]; [13]): 66%
Inhibition % of Control (HIV-1 IIIB [3]; [14]): 30%
Inhibition % of Control (HIV-1 IIIB [3]; [15]): 55%
Inhibition % of Control (HIV-1 IIIB [3]; [16]): 16%
Inhibition % of Control (HIV-1 IIIB [3]; [17]): 7%
inhibition at 5000 µg/mL (stock) (HIV-1III B [4]; Human immunodeficiency virus 1, PBMC, 216 h, read-out: P24 output, Inhibition% of the control): 94%

O=C(CO)N[C@H]1[C@H]([C@H](O)[C@H](O)CO)OC(O)(C(=O)O)C[C@@H]1O (single isomer, unassigned) [2B, N-glycolylneuraminic acid]
P24 output, Inhibition% of the control (HIV-1III B [1]; Dilution 1:20): 81%
P24 output, Inhibition% of the control (HIV-1III B [1]; Dilution 1:40): 61%
P24 output, Inhibition% of the control (HIV-1III B [1]; Dilution 1:80): 37%
P24 output, Inhibition% of the control (HIV-1III B [1]; Dilution 1:160): 16%
Inhibition % of Control (HIV-1 IIIB [2]; [5]): 88%
Inhibition % of Control (HIV-1 IIIB [2]; [6]): 74%
Inhibition % of Control (HIV-1 IIIB [2]; [7]): 59%
Inhibition % of Control (HIV-1 IIIB [2]; [8]): 44%
Inhibition % of Control (HIV-1 IIIB [2]; [9]): 13%
Inhibition % of Control (HIV-1 IIIB [3]; [10]): 82%
Inhibition % of Control (HIV-1 IIIB [3]; [11]): 70%
Inhibition % of Control (HIV-1 IIIB [3]; [12]): 78%
Inhibition % of Control (HIV-1 IIIB [3]; [13]): 61%
Inhibition % of Control (HIV-1 IIIB [3]; [14]): 26%
Inhibition % of Control (HIV-1 IIIB [3]; [15]): 42%
Inhibition % of Control (HIV-1 IIIB [3]; [16]): 15%
Inhibition % of Control (HIV-1 IIIB [3]; [17]): 1%
P24 output, Inhibition% of the control (HIV-1III B [4]): 93%

OC[C@H]1O[C@H](O[C@H]2[C@@H](O)[C@@H](CO)OC(O)[C@@H]2O)[C@H](O)[C@@H](O)[C@H]1O (stereo partly drawn) [3AA, galactose-α 1,3-galactose]
P24 output, Inhibition% of the control (HIV-1III B [1]; Dilution 1:20): 3.6%
P24 output, Inhibition% of the control (HIV-1III B [1]; Dilution 1:40): 2.2%
P24 output, Inhibition% of the control (HIV-1III B [1]; Dilution 1:80): 1.4%
P24 output, Inhibition% of the control (HIV-1III B [1]; Dilution 1:160): 0.4%
P24 output, Inhibition% of the control (HIV-1III B [4]): 4.3%

CC(=O)N[C@H]1[C@H]([C@H](O)[C@H](O)CO)OC(O)(C(=O)O)C[C@@H]1O (some centres unmarked) [N-acetylneuraminic acid, reference compound]
RT Activity (X4 strain LAI/IIIB; 0.4 µg/ml, 3 days PI): 89
RT Activity (X4 strain LAI/IIIB; 0.4 µg/ml, 6 days PI): 129
RT Activity (X4 strain LAI/IIIB; 0.4 µg/ml, 9 days PI): 878
RT Activity (X4 strain LAI/IIIB; 0.4 µg/ml, 13 days PI): 2703
RT Activity (X4 strain LAI/IIIB; 0.4 µg/ml, 17 days PI): 1615
RT Activity (X4 strain LAI/IIIB; 0.4 µg/ml, 20 days PI): 812
RT Activity (X4 strain LAI/IIIB; 3.6 µg/ml, 3 days PI): 83
RT Activity (X4 strain LAI/IIIB; 3.6 µg/ml, 6 days PI): 508
RT Activity (X4 strain LAI/IIIB; 3.6 µg/ml, 9 days PI): 1902
RT Activity (X4 strain LAI/IIIB; 3.6 µg/ml, 13 days PI): 1892
RT Activity (X4 strain LAI/IIIB; 3.6 µg/ml, 17 days PI): 1260
RT Activity (X4 strain LAI/IIIB; 3.6 µg/ml, 20 days PI): 836
RT Activity (X4 strain LAI/IIIB; 11 µg/ml, 3 days PI): 43
RT Activity (X4 strain LAI/IIIB; 11 µg/ml, 6 days PI): 75
RT Activity (X4 strain LAI/IIIB; 11 µg/ml, 9 days PI): 799
RT Activity (X4 strain LAI/IIIB; 11 µg/ml, 13 days PI): 2047
RT Activity (X4 strain LAI/IIIB; 11 µg/ml, 17 days PI): 2990
RT Activity (X4 strain LAI/IIIB; 11 µg/ml, 20 days PI): 1171
RT Activity (X4 strain LAI/IIIB; 33 µg/ml, 3 days PI): 36
RT Activity (X4 strain LAI/IIIB; 33 µg/ml, 6 days PI): 53
RT Activity (X4 strain LAI/IIIB; 33 µg/ml, 9 days PI): 165
RT Activity (X4 strain LAI/IIIB; 33 µg/ml, 13 days PI): 442
RT Activity (X4 strain LAI/IIIB; 33 µg/ml, 17 days PI): 1273
RT Activity (X4 strain LAI/IIIB; 33 µg/ml, 20 days PI): 1526
RT activity in treated cells (summary in words) (X4 strain LAI/IIIB; all dilutions/concentrations, 3-20 days PI): decreased RT activity was observed only with high concentrations

d-Galactose [1A]
P24 output, Inhibition% of the control (HIV-1III B [1]; Dilution 1:20): 5%
P24 output, Inhibition% of the control (HIV-1III B [1]; Dilution 1:40): 4%
P24 output, Inhibition% of the control (HIV-1III B [1]; Dilution 1:80): 2%
P24 output, Inhibition% of the control (HIV-1III B [1]; Dilution 1:160): 2%
P24 output, Inhibition% of the control (HIV-1III B [4]): 4%

d-Galactose [1B]
P24 output, Inhibition% of the control (HIV-1III B [1]; Dilution 1:20): 5%
P24 output, Inhibition% of the control (HIV-1III B [1]; Dilution 1:40): 3%
P24 output, Inhibition% of the control (HIV-1III B [1]; Dilution 1:80): 4%
P24 output, Inhibition% of the control (HIV-1III B [1]; Dilution 1:160): 2%
P24 output, Inhibition% of the control (HIV-1III B [4]): 7%
